Test results: patent US20090306160A1, “METHODS FOR IMPROVING DRUG DISPOSITION” (priority 2005, published 2009)
Values belong to the molecule of their own block, whether it stands above or below them.

What was measured:
MDR1 = MDR1 (Homo sapiens, UniProt P08183); experiment: ATPase assay, reconstituted membranes expressing high levels of MDR1; assay type: biochemical; settings: for ATPase activity: MDR1 membranes
Source text: (§1) In this assay the ABC transporters remove substrates out of reconstituted cell membranes by using ATP hydrolysis as an energy source. ATP hydrolysis yields inorganic phosphate (Pi), which can be detected by a simple colorimetric reaction. The amount of Pi liberated by the transporter is proportional to the activity of the transporter. Membrane preparations containing ABC transporters show a baseline ATPase activity that varies for different transporters. Transported substrates increase this baseline ATPase activity. […] No activation of the MDR1 efflux could be observed.

MRP2 [1] = target: T1, MRP2 (Homo sapiens, UniProt Q92887); experiment: ATPase assay, reconstituted membranes expressing high levels of MRP2; assay type: biochemical
T1 sequence (Q92887 whole entry, species assumed): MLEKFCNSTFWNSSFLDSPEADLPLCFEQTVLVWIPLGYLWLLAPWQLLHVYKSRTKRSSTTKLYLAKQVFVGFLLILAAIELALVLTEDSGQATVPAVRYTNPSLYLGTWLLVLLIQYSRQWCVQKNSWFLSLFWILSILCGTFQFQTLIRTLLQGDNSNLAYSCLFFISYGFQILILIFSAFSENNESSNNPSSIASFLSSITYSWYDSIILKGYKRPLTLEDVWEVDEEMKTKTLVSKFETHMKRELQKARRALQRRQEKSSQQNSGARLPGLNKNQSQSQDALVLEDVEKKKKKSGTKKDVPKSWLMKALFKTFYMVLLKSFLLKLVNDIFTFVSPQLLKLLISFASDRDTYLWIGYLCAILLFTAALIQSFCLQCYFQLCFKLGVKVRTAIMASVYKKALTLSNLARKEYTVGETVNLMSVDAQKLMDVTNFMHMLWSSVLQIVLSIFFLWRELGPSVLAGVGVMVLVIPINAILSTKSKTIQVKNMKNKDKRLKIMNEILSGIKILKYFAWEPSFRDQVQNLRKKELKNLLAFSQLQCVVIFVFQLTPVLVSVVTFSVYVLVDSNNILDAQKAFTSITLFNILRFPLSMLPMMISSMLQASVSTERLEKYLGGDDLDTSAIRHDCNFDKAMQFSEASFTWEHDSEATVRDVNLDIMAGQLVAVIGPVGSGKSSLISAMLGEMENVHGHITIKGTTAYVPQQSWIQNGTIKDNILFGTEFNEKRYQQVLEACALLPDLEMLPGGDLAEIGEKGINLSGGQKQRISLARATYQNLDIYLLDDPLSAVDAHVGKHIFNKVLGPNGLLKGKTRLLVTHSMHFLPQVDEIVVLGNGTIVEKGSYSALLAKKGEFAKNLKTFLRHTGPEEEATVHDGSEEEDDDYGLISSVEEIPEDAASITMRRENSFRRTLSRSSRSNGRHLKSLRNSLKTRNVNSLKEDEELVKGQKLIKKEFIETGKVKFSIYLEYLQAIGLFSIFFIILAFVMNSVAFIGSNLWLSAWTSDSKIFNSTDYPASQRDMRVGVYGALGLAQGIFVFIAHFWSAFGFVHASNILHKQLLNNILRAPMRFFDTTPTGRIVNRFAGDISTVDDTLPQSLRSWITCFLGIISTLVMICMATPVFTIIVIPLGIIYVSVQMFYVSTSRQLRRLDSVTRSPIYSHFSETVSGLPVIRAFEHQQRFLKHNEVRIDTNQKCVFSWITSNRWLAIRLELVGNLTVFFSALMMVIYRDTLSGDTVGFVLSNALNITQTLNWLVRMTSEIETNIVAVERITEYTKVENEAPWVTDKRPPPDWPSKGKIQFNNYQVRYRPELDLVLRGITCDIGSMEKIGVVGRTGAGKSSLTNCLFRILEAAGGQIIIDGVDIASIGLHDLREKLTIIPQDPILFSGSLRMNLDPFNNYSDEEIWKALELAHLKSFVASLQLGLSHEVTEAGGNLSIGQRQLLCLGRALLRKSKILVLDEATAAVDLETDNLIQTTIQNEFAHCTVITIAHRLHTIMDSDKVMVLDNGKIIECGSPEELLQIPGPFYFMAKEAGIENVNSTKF
Source text: as §1

BCRP [2] = target: T2, BCRP (Homo sapiens, UniProt Q9UNQ0); experiment: ATPase assay, reconstituted membranes expressing high levels of BCRP; assay type: biochemical
T2 sequence (Q9UNQ0 1-655): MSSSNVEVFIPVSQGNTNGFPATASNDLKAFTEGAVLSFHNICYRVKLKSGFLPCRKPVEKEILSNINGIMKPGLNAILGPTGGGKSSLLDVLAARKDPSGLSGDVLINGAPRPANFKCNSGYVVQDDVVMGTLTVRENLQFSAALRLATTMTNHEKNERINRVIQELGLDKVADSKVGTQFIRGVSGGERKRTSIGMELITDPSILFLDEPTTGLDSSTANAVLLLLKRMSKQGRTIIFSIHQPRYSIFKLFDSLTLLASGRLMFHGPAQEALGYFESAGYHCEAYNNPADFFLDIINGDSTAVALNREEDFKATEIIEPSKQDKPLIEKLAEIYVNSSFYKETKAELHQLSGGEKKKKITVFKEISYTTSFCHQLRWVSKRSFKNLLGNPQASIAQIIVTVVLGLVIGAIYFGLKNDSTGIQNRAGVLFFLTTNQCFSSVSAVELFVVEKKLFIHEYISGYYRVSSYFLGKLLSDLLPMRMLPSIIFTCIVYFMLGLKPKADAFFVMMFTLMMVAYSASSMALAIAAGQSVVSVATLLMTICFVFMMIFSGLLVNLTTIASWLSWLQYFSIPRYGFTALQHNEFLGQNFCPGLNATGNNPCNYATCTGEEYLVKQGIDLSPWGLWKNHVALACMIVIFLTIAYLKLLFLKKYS
Source text: as §1

BCRP [3] = target: T2, BCRP; experiment: Vesicular uptake assay of [3H]E1S in membrane vesicles over-expressing BCRP; assay type: biochemical; settings: [3H]E1S 0.5 μM, read-out: IC50, inhibition of [3H]E1S transport mediated by BCRP
Protocol: (§2) In this assay ATP-dependent uptake into membrane vesicles with inside-out orientation is determined. Interaction of Compound I with ABC transporters is measured indirectly by incubating the purified membrane vesicles with known radioactive probe substrates ([^3H]LTC4 [0.2 μM] for MRP2-LTC4 stands for Leutriene C4- and [^3H]E1S [0.5 μM] -E1S stands for […]—for BCRP) in the presence and absence (negative control) of different concentrations of Compound I or a well-known positive control compound (Benzbromanone for MRP2 and Sulphasalazine for BCRP). As illustrated herein (Tables 2 and 3), Compound I inhibits [^3H]E1S as well as [^3H]LTC4 transport mediated by BCRP (IC50≅1 μM) and MRP2 (IC50≅50 μM), respectively.

MRP2 [4] = target: T1, MRP2; experiment: Vesicular uptake assay of [3H]LTC4 in membrane vesicles over-expressing MRP2; assay type: biochemical; settings: [3H]LTC4 0.2 μM; for Vesicular uptake, AMP activation / Vesicular uptake, ATP activation: MRP2 vesicles
Protocol: as §2

[5] = Caco-2 bi-directional permeability assay; assay type: in vitro ADME; settings: human, Caco-2
Protocol: (§3) Alternatively, the in vitro transporter affinity of a drug substance can be determined and approximated by measuring the compound permeability across cells known to express ABC transporters, as e.g. the Caco-2 cell line. Interaction of Compound I with ABC transporter(s) is measured by determining the concentration-dependent compound transport across Caco-2 cell monolayers from the apical (AP) to basolateral (BL) as well as the basolateral to apical side.

Caco-2 cell monolayers = experiment: Caco-2 bi-directional permeability assay; assay type: in vitro ADME; settings: Caco-2 cell monolayers
Protocol: as §3

Sequence of MDR1 (P08183 whole entry, species assumed): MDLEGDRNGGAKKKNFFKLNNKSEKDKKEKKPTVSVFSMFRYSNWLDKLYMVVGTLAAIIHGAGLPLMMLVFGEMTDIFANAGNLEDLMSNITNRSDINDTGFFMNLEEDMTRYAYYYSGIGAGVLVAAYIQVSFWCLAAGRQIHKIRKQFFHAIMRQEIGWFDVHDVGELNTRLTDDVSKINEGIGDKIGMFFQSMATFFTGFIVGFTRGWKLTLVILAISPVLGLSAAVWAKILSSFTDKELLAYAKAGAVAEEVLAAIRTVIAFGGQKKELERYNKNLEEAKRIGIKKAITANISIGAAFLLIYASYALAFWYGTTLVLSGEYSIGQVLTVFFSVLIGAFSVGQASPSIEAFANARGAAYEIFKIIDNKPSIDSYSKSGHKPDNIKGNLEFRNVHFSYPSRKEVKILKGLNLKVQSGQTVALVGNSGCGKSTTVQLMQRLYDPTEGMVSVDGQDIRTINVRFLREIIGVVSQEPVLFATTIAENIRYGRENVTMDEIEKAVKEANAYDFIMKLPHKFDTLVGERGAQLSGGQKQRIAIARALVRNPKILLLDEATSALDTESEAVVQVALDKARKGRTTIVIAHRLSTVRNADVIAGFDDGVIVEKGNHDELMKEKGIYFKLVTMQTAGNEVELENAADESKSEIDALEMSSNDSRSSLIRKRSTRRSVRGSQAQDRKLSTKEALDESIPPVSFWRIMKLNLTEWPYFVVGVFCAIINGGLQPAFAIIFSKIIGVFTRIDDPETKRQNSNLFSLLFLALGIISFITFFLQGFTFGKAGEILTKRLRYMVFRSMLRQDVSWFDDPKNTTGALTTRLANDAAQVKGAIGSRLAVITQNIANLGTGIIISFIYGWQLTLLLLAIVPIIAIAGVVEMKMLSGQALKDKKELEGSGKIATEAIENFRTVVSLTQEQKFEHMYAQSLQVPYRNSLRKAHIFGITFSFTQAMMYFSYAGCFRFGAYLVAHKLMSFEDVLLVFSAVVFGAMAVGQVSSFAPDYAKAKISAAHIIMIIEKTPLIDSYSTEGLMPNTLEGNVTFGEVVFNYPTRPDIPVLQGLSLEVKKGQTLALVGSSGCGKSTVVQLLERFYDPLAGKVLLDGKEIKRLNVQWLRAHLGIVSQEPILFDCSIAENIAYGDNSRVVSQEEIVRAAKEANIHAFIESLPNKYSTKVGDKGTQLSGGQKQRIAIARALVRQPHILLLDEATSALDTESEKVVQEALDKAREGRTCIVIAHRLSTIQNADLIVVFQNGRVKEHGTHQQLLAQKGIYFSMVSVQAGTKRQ

ATPase activity (MDR1; Compound I 0.04 μM): 18.7 ± 0.6 nmol Pi/min/mg protein | ATPase activity (MDR1; Compound I 0.13 μM): 18.0 ± 0.7 nmol Pi/min/mg protein | ATPase activity (MDR1; Compound I 0.40 μM): 17.4 ± 1.3 nmol Pi/min/mg protein | ATPase activity (MDR1; Compound I 1.21 μM): 17.0 ± 1.0 nmol Pi/min/mg protein | ATPase activity (MDR1; Compound I 3.63 μM): 17.3 ± 0.3 nmol Pi/min/mg protein | ATPase activity (MDR1; Compound I 10.89 μM): 17.3 ± 0.5 nmol Pi/min/mg protein | ATPase activity (MDR1; Compound I 32.67 μM): 17.3 ± 0.4 nmol Pi/min/mg protein | ATPase activity (MDR1; Compound I 98.0 μM): 16.7 ± 0.5 nmol Pi/min/mg protein | activation of the MDR1 efflux (ATPase) (MDR1; reconstituted membranes expressing high levels of MDR1): No activation | ATPase activity (MRP2 [1]; Compound I 0.04 μM): 5.1 ± 0.6 nmol Pi/min/mg protein | ATPase activity (MRP2 [1]; Compound I 0.13 μM): 5.4 ± 0.3 nmol Pi/min/mg protein | ATPase activity (MRP2 [1]; Compound I 0.40 μM): 5.4 ± 0.1 nmol Pi/min/mg protein | ATPase activity (MRP2 [1]; Compound I 1.21 μM): 5.1 ± 0.4 nmol Pi/min/mg protein | ATPase activity (MRP2 [1]; Compound I 3.63 μM): 5.0 ± 0.0 nmol Pi/min/mg protein | ATPase activity (MRP2 [1]; Compound I 10.89 μM): 5.2 ± 0.4 nmol Pi/min/mg protein | ATPase activity (MRP2 [1]; Compound I 32.67 μM): 6.3 ± 0.2 nmol Pi/min/mg protein | ATPase activity (MRP2 [1]; Compound I 98.0 μM): 8.3 ± 0.7 nmol Pi/min/mg protein | ATPase activity (BCRP [2]; Compound I 0.04 μM): 32.9 ± 1.0 nmol Pi/min/mg protein | ATPase activity (BCRP [2]; Compound I 0.13 μM): 35.5 ± 0.8 nmol Pi/min/mg protein | ATPase activity (BCRP [2]; Compound I 0.40 μM): 34.2 ± 8.0 nmol Pi/min/mg protein | ATPase activity (BCRP [2]; Compound I 1.21 μM): 49.4 ± 0.5 nmol Pi/min/mg protein | ATPase activity (BCRP [2]; Compound I 3.63 μM): 61.1 ± 0.3 nmol Pi/min/mg protein | ATPase activity (BCRP [2]; Compound I 10.89 μM): 65.9 ± 0.1 nmol Pi/min/mg protein | ATPase activity (BCRP [2]; Compound I 32.67 μM): 65.7 ± 0.5 nmol Pi/min/mg protein | ATPase activity (BCRP [2]; Compound I 98.0 μM): 60.3 ± 1.6 nmol Pi/min/mg protein | IC50 (BCRP [3]): ~1000 nM | Vesicular uptake, AMP activation (MRP2 [4]; compound conc. 10 μM): 5.4 pmol/mg/min | Vesicular uptake, ATP activation (MRP2 [4]; compound conc. 10 μM): 25.6 pmol/mg/min | Vesicular uptake, AMP activation (MRP2 [4]; compound conc. 100 μM): 5.8 pmol/mg/min | Vesicular uptake, ATP activation (MRP2 [4]; compound conc. 100 μM): 11.5 pmol/mg/min | IC50 (MRP2 [4]; membrane vesicles, read-out: IC50, inhibition of [3H]LTC4 transport mediated by MRP2): ~50 µM | Papp A→B at 1 μM ([5]; apical to basolateral, conc. 1 μM, read-out: Caco-2 permeability Papp(AP-BL) (converted)): 1 ×10⁻⁶ cm/s | Papp A→B at 5 μM ([5]; apical to basolateral, conc. 5 μM, read-out: Caco-2 permeability Papp(AP-BL) (converted)): 7.67 ×10⁻⁶ cm/s | Papp A→B at 10 μM ([5]; apical to basolateral, conc. 10 μM, read-out: Caco-2 permeability Papp(AP-BL) (converted)): 11.6 ×10⁻⁶ cm/s | Papp A→B at 50 μM ([5]; apical to basolateral, conc. 50 μM, read-out: Caco-2 permeability Papp(AP-BL) (converted)): 14.6 ×10⁻⁶ cm/s | Papp B→A at 1 μM ([5]; basolateral to apical, conc. 1 μM, read-out: Caco-2 permeability Papp(BL-AP) (converted)): 15.5 ×10⁻⁶ cm/s | Papp B→A at 5 μM ([5]; basolateral to apical, conc. 5 μM, read-out: Caco-2 permeability Papp(BL-AP) (converted)): 23.8 ×10⁻⁶ cm/s | Papp B→A at 10 μM ([5]; basolateral to apical, conc. 10 μM, read-out: Caco-2 permeability Papp(BL-AP) (converted)): 22.2 ×10⁻⁶ cm/s | Papp B→A at 50 μM ([5]; basolateral to apical, conc. 50 μM, read-out: Caco-2 permeability Papp(BL-AP) (converted)): 21.5 ×10⁻⁶ cm/s | concentration at which bi-directional permeability values converge (complete efflux transporter saturation) (Caco-2 cell monolayers): about 50 μM
Structure (SMILES): O=C(O)c1ccc(-n2nc(-c3ccccc3O)nc2-c2ccccc2O)cc1 [Compound I, 4-[3,5-bis(2-hydroxyphenyl)-[1,2,4]trizol-1-yl]benzoic acid]
efflux substrate identification (Caco-2 cell monolayers; AP-BL vs BL-AP transport): substrate for one or several prominent efflux system(s) | Km (Caco-2 cell monolayers; bi-directional transport, read-out: apparent Km of efflux transport): ~5 µM

Vesicular uptake, AMP activation (MRP2 [4]; positive control conc. 3000 μM): 11.1 pmol/mg/min | Vesicular uptake, ATP activation (MRP2 [4]; positive control conc. 3000 μM): 10.8 pmol/mg/min
Structure (SMILES): CCCCc1oc2ccccc2c1C(=O)c1cc(Br)c(O)c(Br)c1 [Benzbromanone, reference compound]
